Measurements as given in US8618169B2, “Derivatives of N-phenylanthranilic acid and 2-benzimidazolone as potassium channel and/or neuron activity modulators” (Ramot at Tel-Aviv University Ltd., priority 2002, dated 2013).

Experiments:
Format in all cases: cell-based
KCNQ1/KCNE1 = molecular target: T1, KCNQ1/KCNE1 (Homo sapiens, UniProt P51787); test: KCNQ1/KCNE1 (IKS) current amplitude; conditions: 50 μM, test potentials −50 to 0 mV, data not shown
T1 construct: expressed in transfected cells; host or cells: Xenopus oocytes (stated for Compound 6)
Experimental: (§1) Briefly, two-electrode voltage-clamp measurements were performed 3-5 days following cRNA microinjection into oocytes. Oocytes were bathed in a modified ND96 solution containing (in mM): 96 NaCl, 2 KCl, 1 MgCl2, 0.1 CaCl2 and 5 HEPES titrated to pH=7.4 with NaOH. Whole-cell currents were recorded at room temperature (20° C.-22° C.) using a GeneClamp 500 amplifier (Axon Instruments, Foster City, Calif., USA). […] Current signals were filtered at 0.5 kHz and digitized at 2 kHz.
(§2) The current amplitude of the various channels was measured from a −80 mV holding potential.

homomeric KCNQ2 channels = molecular target: T2, homomeric KCNQ2 channels (Homo sapiens, UniProt O43526); test: Homomeric KCNQ2 channels expressed in CHO cells, patch-clamp; conditions: 50 μM
T2 construct: expressed in transfected cells; host or cells: CHO cells

KCNQ1 = molecular target: T3, KCNQ1 (Homo sapiens, UniProt P51787); test: KCNQ1 current amplitude in Xenopus oocytes; conditions: 50 μM, test potentials −50 to 0 mV, data not shown
T3 construct: expressed in transfected cells; host or cells: Xenopus oocytes (cRNA microinjection)
Experimental: as §1
Data are expressed as mean±SEM of 5-8 separate experiments.
as §2

F-11 neuronal cells = test: Spiking activity and membrane potential of F-11 neuronal cells, current-clamp; conditions: 10 μM
Experimental: F-11 neuronal cells were similarly cultured in F-12 Ham media containing 2 mM 1-glutamine supplemented with 10% fetal bovine serum, HAT supplement and antibiotics.
For current measurements in CHO cells, recordings were performed 40 hours following transfection, using the whole-cell configuration of the patch-clamp technique [Hamill et al., Nature 294: 462-464 (1981)]. Signals were amplified using an Axopatch 200B patch-clamp amplifier (Axon Instruments, Foster City, Calif., USA), sampled at 2 kHz and filtered at 800 Hz via a 4-pole Bessel low pass filter. Data were acquired using pClamp 8.1 software (Axon Instruments, Foster City, Calif., USA) and an Elonex Pentium III computer in conjunction with a DigiData 1322A interface (Axon Instruments, Foster City, Calif., USA). The patch pipettes were pulled from borosilicate glass (Warner Instrument. Corp., Hamden, Conn., USA) with a resistance of 2-5 MΩ and were filled with (in mM): 130 KCl, 1 MgCl2, 5 K2ATP, 5 EGTA, 10 HEPES, adjusted with KOH at pH 7.4 (290 mOsm). The external solution contained (in [mM]): 140 NaCl, 4 KCl, 1.8 CaCl2, 1.2 MgCl2, 11 glucose, 5.5 HEPES, adjusted with NaOH at pH 7.4 (310 mOsm). Series resistances (3-13 MΩ) were compensated (75-90%) and periodically monitored. For current-clamp measurements of rat cortical neurons, recordings were performed 10-14 days after plating, while rat DRG neurons recordings were performed 3 days after plating. The patch pipettes were filled with (in [mM]): 135 KCl, 1 K2ATP, 1 MgATP, 2 EGTA, 1.1 CaCl2, 5 glucose, 10 HEPES, adjusted with KOH at pH 7.4 (315 mOsm). The external solution contained (in [mM]): 140 NaCl, 4 KCl, 2 CaCl2, 2 MgCl2, 5 glucose, 10 HEPES, adjusted with NaOH at pH 7.4 (325 mOsm). For evoking the neuronal action potentials, 50-300 pA currents were injected into the cells for 800 ms (square pulse). Recordings were sampled at 5 kHz and filtered at 2 KHz via a 4-pole Bessel low pass filter. […]

Row | Compound | effect on heteromeric KCNQ1/KCNE1 currents (KCNQ1/KCNE1) | leftward shift in the activation curve of KCNQ2 channels (homomeric KCNQ2 channels; CHO cells) [mV] | increase of KCNQ2 current amplitude (homomeric KCNQ2 channels; stepped from −85 mV to −40 mV) [%] | time constant of deactivation τdeact of KCNQ2 with compound (homomeric KCNQ2 channels; control 92.6±3.9 msec) [ms] | V50 of KCNQ2 activation with compound (homomeric KCNQ2 channels; control −23.6±2.2 mV) [mV] | effect on homomeric KCNQ1 currents (KCNQ1) | effect on spikes generated in F-11 cells (F-11 neuronal cells) | hyperpolarization of the membrane potential (F-11 neuronal cells) [mV] | membrane potential of the F-11 neuronal cell with compound (F-11 neuronal cells; FIG. 26, from −59 mV) [mV]
1 | Cc1ccc(Cl)c(Nc2ccccc2C(=O)O)c1Cl [Compound 1, Meclofenamic acid] | not enhanced | −26.9 | 240±26 | 152.7 ± 4.9 | −50.5±1.4 | not enhanced | – | – | –
2 | O=C(Cc1ccccc1Nc1c(Cl)cccc1Cl)NCCOCCO [Compound 6] | – | – | – | – | – | – | completely and reversibly blocks | 9±3 | −67
